Measurements as given in publication PMC7461116, “Synthesis, Anticonvulsant and Antinociceptive Activity of New Hybrid Compounds: Derivatives of 3-(3-Methylthiophen-2-yl)-pyrrolidine-2,5-dione” (International Journal of Molecular Sciences, 2020).
Structures can show the parent of a compound that is named as a salt. Where two headings read alike, the source gives them in different places.

Tests used:
[1] = tested on: Voltage-Sensitive Na+ Channel (site 2); experiment: Radioligand binding, [3H]BTX, Cerep; conditions: 100 µM, rat cerebral cortex synaptoneurosomal preparations
Procedure: (§1) Binding and functional studies were performed commercially in Cerep Laboratories (Poitiers, France) using testing procedures described elsewhere (Na^+ channel-site 2 [27], L-type Ca^2+ channel, dihydropyridine site, TRPV1 (VR1) (h) (antagonist effect), GABA transporter (GAT)). All experiments were performed in duplicate.

[2] = Hepatotoxicity, PrestoBlue viability assay; type: cell-based, human; conditions: human, Hep G2 cells, 1–100 μM, read-out: Hep G2 cell viability
Procedure: (§2) Hepatotoxicity of tested compounds was assessed in PrestoBlue (Thermo Fisher Scientific, Waltham, MA, USA) Experiments on microplate reader (SpectraMax® iD3, Molecular Devices, San Jose, CA, USA) using human hepatocellular carcinoma cells (Hep G2) ATCC® […]. The cells were cultured in standard conditions (37 °C, 5% CO2), in Dulbecco’s Modified Eagle’s Medium-high glucose, (DMEM, Gibco, Thermo Fisher Scientific, Waltham, MA, USA) supplemented with 10% fetal bovine serum (Thermo Fisher Scientific, Waltham, MA, USA), with added 100 IU/mL penicillin (Sigma Aldrich, Steinheim, Germany) and 100 µg/mL streptomycin (Sigma Aldrich). PrestoBlue reagent is a resazurin-based solution that functions as a cell viability indicator. Metabolically active cells are capable of reducing the PrestoBlue reagent, with the colorimetric changes used as an indicator to quantify the viability of cells in culture. This change can be determined by measuring the fluorescence. After 24 h of incubation with the compounds PrestoBlue reagent was added to wells of a microplate. After 20 min of incubation at 37 °C, the fluorescence intensity (EX 530; EM 580 nm) was measured in a plate reader. Viability values were calculated as a percentage of live cells with respect to the control sample (DMSO). The negative control was medium without cells. Astemizole was used as a reference substance.

[3] = Rotarod test (acute neurotoxicity, NT); conditions: mouse, in vivo, mice ip
[4] = tested on: latency time to pain reaction; experiment: Hot plate test; type: in vivo; conditions: mice, ip, 30 mg/kg
Procedure: The hot plate test was carried out based on the Eddy and Leimbach (1953) method. In this test, the apparatus was equipped with an electrically heated surface with a temperature controller that maintains surface temperature to a set point. Herein, the temperature was set at 55 °C. The animals were treated ip either with the test compounds, or vehicle 30 min before placing the animal on a hot plate apparatus. Latency time to pain reaction, i.e., the time until the animal licked its back paws or jumped was recorded by means of the stopwatch.

[5] = tested on: 6 Hz psychomotor seizures; experiment: 6 Hz (32 mA) psychomotor seizure test; type: in vivo, mice; conditions: for ED50 / responders at 100 mg/kg: Mus musculus; for ED50 / PI (TD50/ED50), 6 Hz: mice ip; for ED50: 95% confidence limit in brackets; for responders at 100 mg/kg / 6 Hz: tested animals protected: ip, 0.5 h
From the text: Psychomotor seizures were induced via corneal stimulation (6 Hz, 32 mA, 0.2 ms rectangular pulse width, 3 s duration) using a constant-current device (ECT Unit 57800, Ugo Basile, Italy). A drop of 1% solution of lidocaine hydrochloride was applied to the mouse corneas before stimulation to provide local anesthesia and ensure optimal current conductivity. After the electrical stimulation, mice were gently released and observed for the presence or absence of seizure activity, being characterized by immobility associated with rearing, forelimb clonus, twitching of the vibrissae, stun, and Straub-tail. Lack of the above symptoms or their cessation within 10 s from the stimulation was considered as absence of seizure activity. The initial anticonvulsant screening of the tested compounds was performed at a fixed dose of 100 mg/kg (four mice per group). Then ED50 was calculated for active compounds as described above.

[6] = tested on: motor impairment on rotarod; experiment: Rotarod test (acute neurotoxicity, NT); type: in vivo; conditions: ip, 100 mg/kg, 0.5 h
Procedure: In this test mice were trained to balance on an accelerating rotarod that rotated at 10 rotations per minute (Rotarod apparatus, May Commat RR0711, Turkey; rod diameter: 3 cm). During the training session, the animals were placed on a rotating rod for 3 min with an unlimited number of trials. Proper experiment was conducted 24 h after the training trial. On the test day, trained mice were intraperitoneally pretreated with the test compound at a dose of 100 mg/kg and just before the MES test were tested on the rotarod. Neurotoxicity was indicated by the inability of the animal to maintain equilibration on the rod for 1 min. […] Each group consisted of six animals.

TRPV1 receptor = molecular target: T1, TRPV1 receptor (Homo sapiens, UniProt Q8NER1); experiment: TRPV1 (VR1) (h) antagonist effect, Cerep; type: biochemical; conditions: 100 µM
T1 construct: Cerep Laboratories (Poitiers, France)
T1 sequence (Q8NER1 whole entry): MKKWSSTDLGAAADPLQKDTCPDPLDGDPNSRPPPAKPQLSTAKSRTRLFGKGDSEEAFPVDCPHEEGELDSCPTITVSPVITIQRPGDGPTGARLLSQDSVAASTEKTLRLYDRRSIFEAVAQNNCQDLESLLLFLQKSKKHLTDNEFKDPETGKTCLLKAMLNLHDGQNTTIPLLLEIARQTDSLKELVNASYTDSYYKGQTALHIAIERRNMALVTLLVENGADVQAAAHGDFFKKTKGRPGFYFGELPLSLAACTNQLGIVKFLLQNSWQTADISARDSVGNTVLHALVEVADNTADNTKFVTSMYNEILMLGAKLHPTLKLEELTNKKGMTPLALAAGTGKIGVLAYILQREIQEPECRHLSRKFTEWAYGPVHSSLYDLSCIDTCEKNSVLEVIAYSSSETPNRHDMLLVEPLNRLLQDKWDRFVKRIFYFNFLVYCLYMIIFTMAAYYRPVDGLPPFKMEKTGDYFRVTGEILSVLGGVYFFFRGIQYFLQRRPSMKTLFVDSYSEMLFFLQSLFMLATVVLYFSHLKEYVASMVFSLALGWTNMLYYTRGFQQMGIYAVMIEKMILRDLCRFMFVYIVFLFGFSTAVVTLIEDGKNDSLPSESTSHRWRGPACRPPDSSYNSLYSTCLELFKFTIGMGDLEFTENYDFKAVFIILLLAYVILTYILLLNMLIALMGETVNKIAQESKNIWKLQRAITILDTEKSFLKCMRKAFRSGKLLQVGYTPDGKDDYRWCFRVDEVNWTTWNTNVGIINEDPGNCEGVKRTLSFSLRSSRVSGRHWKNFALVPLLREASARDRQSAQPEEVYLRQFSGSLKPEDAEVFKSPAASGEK
Procedure: as §1

[7] = tested on: acetic acid-induced writhing behavior; experiment: Acetic acid-induced writhing test; type: in vivo; conditions: mice, ip
Procedure: Mice were injected with the test compound or vehicle by intraperitoneally route (ip), and 30 min later, 0.9 % acetic acid solution was injected ip and the animals were placed into the glass beakers. The writhing response (lengthwise stretching of the torso, concave arching of the back, and extension of the hind limbs) was recorded for 30 min. The analgesic effect of the tested substances was determined by a decrease in the number of writhes observed and the results were expressed as percent inhibition of writhing behavior (as index of analgesia), and was calculated using the following formula: %Inhibition=(NA−NB)/NA×100, where NA—number of writhes in vehicle group, NB—number of writhes in drug-treated group.

[8] = tested on: maximal electroshock seizures; experiment: Maximal electroshock seizure (MES) test; type: in vivo, mice; conditions: for responders at 100 mg/kg / ED50: Mus musculus; for responders at 100 mg/kg / MES: tested animals protected: ip, 0.5 h; for ED50: mice ip, 95% confidence limit in brackets
Procedure: The MES test was performed as previously described. Stimuli (25 mA, 0.2 s, 50 Hz) were generated by a constant current stimulator (Rodent shocker, Type 221, Hugo Sachs Elektronik, Germany) and delivered with the use of auricular electrodes. During the stimulation, each mouse was restrained manually, and immediately after the stimulation gently released for observation. The endpoint was the tonic extension of the hind limbs. Mice not displaying hindlimb tonic extension were considered to be protected from seizure. The initial anticonvulsant screening of the tested compounds was performed at a fixed dose of 100 mg/kg (four mice per group). […] To evaluate the ED50, at least three groups of animals were injected with various doses of tested compounds. Each group consisted of six animals.

[9] = tested on: Voltage-Sensitive Ca2+ Channel L-type (dihydropyridine site); experiment: Radioligand binding, [3H]nitrendipine, Cerep; conditions: 100 µM, rat cerebral cortex synaptoneurosomal preparations
Procedure: as §1

GABA Transporter (GAT) = experiment: Radioligand binding, [3H]GABA, Cerep; conditions: 100 µM, rat cerebral cortex synaptoneurosomal preparations
Procedure: as §1

[10] = tested on: PTZ-induced clonic seizures; experiment: Subcutaneous pentylenetetrazole (scPTZ) seizure test; type: in vivo; conditions: mice, 100 mg/kg
Procedure: Clonic convulsions were induced by the subcutaneous (sc) administration of PTZ at a dose of 100 mg/kg. After PTZ injection, the mice were placed separately and observed during the next 30 min for the occurrence of clonic seizures. Clonic seizures were defined as clonus of the whole body lasting more than 3 s, with an accompanying loss of righting reflex. The latency to first clonus, the number of seizure episodes, and mortality rate were noted and compared with vehicle-treated and drug-treated groups. The absence of clonic convulsions within the observed time period was interpreted as the compound’s ability to protect against PTZ-induced seizures.

Hep G2 cells = experiment: Hepatotoxicity, PrestoBlue viability assay; type: cell-based, human; conditions: 24 h; for Hepatotoxicity in Hep G2 cells, in words: 1 and 10 μM; for Inhibition of viability of Hep G2 cells: 100 and 50 μM
Procedure: as §2

[11] = tested on: 6 Hz psychomotor seizures; conditions: mice ip, reference AEDs, cited from earlier work; for 6 Hz ED50: 32 mA
[12] = tested on: maximal electroshock seizures; conditions: cited from earlier work
[13] = mice, 100 mg/kg, 32 mA, read-out: 6 Hz: number of mice protected/number of mice tested (converted)
[14] = mice, 100 mg/kg, read-out: MES: number of mice protected/number of mice tested (converted)
[15] = read-out: 6 Hz: number of mice protected/number of mice tested
[16] = read-out: MES: number of mice protected/number of mice tested

Structure (SMILES) | % Inhibition of Control Specific Binding, Voltage-Sensitive Na+ Channel (site 2) [1] [%] | TD50 at 0.5 h [3] [mg/kg] | Hot plate: prolongation of latency time to pain reaction [4] | ED50 ([5]; 32 mA) [mg/kg] | responders at 100 mg/kg [5, 13] [%] | 6 Hz: tested animals protected ([5]; mice, 100 mg/kg, 32 mA) | NT: number of mice with motor impairment/number of mice tested [6] | TRPV1 antagonist effect (TRPV1 receptor) [%] | Reduction of number of writhes (inhibition of writhing behavior) ([7]; 30 mg/kg) [%] | responders at 100 mg/kg [8, 14] [%] | % Inhibition of Control Specific Binding, Voltage-Sensitive Ca2+ Channel L-typ [9] [%] | also measured
Cc1ccsc1C1CC(=O)N(CCN2CCOCC2)C1=O (racemic) [Compound 3, (R,S)-3-(3-Methylthiophen-2-yl)-1-(2-morpholinoethyl)pyrrolidine-2,5-dione hydrochloride] | 15.6 | > 200 | inactive | 74.3 | 100 | 100% | 0/4 | 14.8 | 34 | 25 | −1.1 | viability at 24 h [2]: > 94%; Reduction of number of writhes (inhibition of writhing behavior) ([7]; 45 mg/kg): 39%; % Inhibition of Control Specific Binding, GABA Transporter (GAT) (GABA Transporter (GAT)): −1.1%; scPTZ: tested animals protected [10]: 50%; scPTZ: latency time to first seizure episode ([10]; control 436.8 ± 91.94 s): 1435 ± 234.9 s; scPTZ: prolongation of latency time to first seizure episode ([10]; vs control, p < 0.001): 228%
Cc1ccsc1C1CC(=O)N(CCCN2CCOCC2)C1=O (racemic) [Compound 4, (R,S)-3-(3-Methylthiophen-2-yl)-1-(3-morpholinopropyl)pyrrolidine-2,5-dione hydrochloride] | 42.1 | < 200 | inactive | 75.6 | – | at least 75% | 0/4 | – | 29.8 | – | 39.7 | viability at 24 h [2]: > 94%; responders at 100 mg/kg [5, 15]: 75%; PI (TD50/ED50), 6 Hz [5]: < 2.65; responders at 100 mg/kg [8, 16]: 75%; ED50 [8]: 62.1 mg/kg; MES: tested animals protected ([8]; mice, 100 mg/kg): 75%; % Inhibition of Control Specific Binding, GABA Transporter (GAT) (GABA Transporter (GAT)): −3.2%; scPTZ: effect in words [10]: no significant effect
Cc1ccsc1C1CC(=O)N(CCCN2CCN(c3cccc(C(F)(F)F)c3)CC2)C1=O (racemic) [Compound 6, (R,S)-3-(3-Methylthiophen-2-yl)-1-(3-(4-(3-(trifluoromethyl)phenyl)piperazin-1-yl)propyl)pyrrolidine-2,5-dione hydrochloride] | 96.7 | < 100 | 49% | 78.3 | – | at least 75% | 4/4 | 74.8 | 27 | – | 69.9 | Hepatotoxicity in Hep G2 cells, in words (Hep G2 cells): no hepatotoxicity; Inhibition of viability of Hep G2 cells (Hep G2 cells): 13–28%; responders at 100 mg/kg [5, 15]: 75%; PI (TD50/ED50), 6 Hz [5]: < 1.28; responders at 100 mg/kg [8, 16]: 25%
Cc1ccsc1C1CC(=O)N(CCCN2CCN(c3ccc(Cl)c(Cl)c3)CC2)C1=O (racemic) [Compound 9, (R,S)-1-(3-(4-(3,4-Dichlorophenyl)piperazin-1-yl)propyl)-3-(3-methylthiophen-2-yl)pyrrolidine-2,5-dione hydrochloride] | 78.8 | > 300 | 43% | > 130 | 50 | – | 0/4 | 109.5 | 61.44 | 50 | −9.5 | Hepatotoxicity in Hep G2 cells, in words (Hep G2 cells): no hepatotoxicity; Inhibition of viability of Hep G2 cells (Hep G2 cells): 13–28%; ED50 [8]: > 130 mg/kg; MES: tested animals protected ([8]; mice, 100 mg/kg): 50%
Cc1ccsc1C1CC(=O)N(CC(=O)N2CCN(c3cccc(Cl)c3)CC2)C1=O (racemic) [Compound 14, (R,S)-1-(2-(4-(3-Chlorophenyl)piperazin-1-yl)-2-oxoethyl)-3-(3-methylthiophen-2-yl)pyrrolidine-2,5-dione] | – | > 300 | – | 153 | 50 | – | 0/4 | – | – | 0 | – | scPTZ: effect in words [10]: no significant effect
CCC1(C)CC(=O)NC1=O (centres unmarked) [ETX, ethosuximide] | – | – | – | – | – | – | – | – | – | – | – | 6 Hz ED50 [11]: 221.7 (183.0–268.5) mg/kg; PI (TD50/ED50), 6 Hz [11]: 3.2 (6 Hz); MES: protection in words [12]: did not show protection; MES ED50 ([12]; mice ip, reference AEDs): > 500 mg/kg
CCCC(CCC)C(=O)O [VPA, valproic acid] | – | – | – | – | – | – | – | – | – | – | – | 6 Hz ED50 [11]: 130.6 (117.6–145.2) mg/kg; PI (TD50/ED50), 6 Hz [11]: 3.3; PI (TD50/ED50), MES ([12]; mice ip, reference AEDs): 1.7
